Series [1] has as its system Caenorhabditis elegans. Put plainly: Nematocidal activity against Caenorhabditis elegans assessed as mortality on day 3. It is filed as functional. More on the design: concentration or dose not given beside the values.
For series [2], the system named is Caenorhabditis elegans. As to the kind of experiment: Nematocidal activity against Caenorhabditis elegans assessed as inhibition of reproduction on day 3. The format is functional.
A short description of series [3]: Toxicity against Globodera pallida.
The nature of series [4]: Toxicity against Globodera rostochiensis.
Series [5] in a line: Inhibition of Globodera pallida hatching. The format is functional.
Series [6] in a line: Inhibition of Globodera rostochiensis hatching. The format is functional.
The test system of a further series is Plasmodium falciparum. As to the kind of experiment: Antiplasmodial activity against Plasmodium falciparum. The format is functional, organism-based.

SMILES strings stand for the structures. The source made the active and inactive calls. No cut-off for these calls is given here.

For the molecule `CCCCOc1ccc(C(=O)/C=C/c2ccccc2)cc1`, in the series with Caenorhabditis elegans [1], the result was Active. Besides, in the series on Caenorhabditis elegans [2], the inhibition result is “Active”.
As a reminder, the LC50 is the concentration that kills 50% of the test population. A word on the IC50: it is the concentration needed to halve the response being measured. `O=C(/C=C/c1ccccc1)c1ccccc1` [CHALCONE]: the LC50 in series [3] and in series [4] was 33 mM each time. The IC50 in series [5] and in series [6] was 7 mM each time. Moreover, in the series with Caenorhabditis elegans [1], the Activity is 100%. Further, the “inhibition (INH)” value in the series with Caenorhabditis elegans [2] was found to be 0%.
On to `O=C(/C=C/c1ccccc1)c1ccco1`, for which the result in the series on Caenorhabditis elegans [1] was Active. Moreover, the inhibition result in the series with Caenorhabditis elegans [2] is “Active”.
In the case of `CCOc1ccc(C(=O)/C=C/c2ccccc2)cc1`, the Activity with Caenorhabditis elegans [1] stood at 100%. In the series with Caenorhabditis elegans [2], the “inhibition (INH)” value amounted to 0%.
`O=C(/C=C/c1ccccc1)c1ccc(F)cc1F`: the Activity in the series on Caenorhabditis elegans [1] is on record as 100%. Further, in the series with Caenorhabditis elegans [2], the “inhibition (INH)” value was 0%.
For `O=C(/C=C/c1cccnc1)c1ccc(F)cc1`, in the series on Plasmodium falciparum, the IC50 is 17 µM. The Activity in the series with Caenorhabditis elegans [1] was 100%. Also, the “inhibition (INH)” value in the series with Caenorhabditis elegans [2] is recorded as 0%.
As for `O=C(/C=C/c1ccccc1)c1cccc(Cl)c1`, the Activity in the series on Caenorhabditis elegans [1] worked out at 100%. In addition, the “inhibition (INH)” value in the series with Caenorhabditis elegans [2] is listed as 0%.
Taken in the same sequence, the figures for `O=C(/C=C/c1ccccc1)c1ccc(Cl)cc1Cl` were 100% and 0%.
With `O=C(/C=C/c1ccccc1)c1cccs1`, the Activity with Caenorhabditis elegans [1] is given as 100%. Also, the “inhibition (INH)” value with Caenorhabditis elegans [2] was determined as 0%.
Taken in the same sequence, the figures for `COc1ccc(C(=O)/C=C/c2ccccc2)c(OC)c1` were 100% and 0%.
With `O=C(/C=C/c1ccccc1)c1ccccc1Cl`, in the series with Caenorhabditis elegans [1], the outcome was Active. In addition, the inhibition entry with Caenorhabditis elegans [2] is “Active”.
